Data published in ChEMBL document CHEMBL5463725, “Data for DCP probe BAY-277” (2023).

Key:
[1] = target: T1, Muscarinic acetylcholine receptor M4 (Homo sapiens, UniProt P08173); assay: GPCRScan assay: inhibition of M4; set-up: radioligand conc. used [nm] 0.3 – 1.0, parental cells stable CHO
T1 sequence (P08173 whole entry): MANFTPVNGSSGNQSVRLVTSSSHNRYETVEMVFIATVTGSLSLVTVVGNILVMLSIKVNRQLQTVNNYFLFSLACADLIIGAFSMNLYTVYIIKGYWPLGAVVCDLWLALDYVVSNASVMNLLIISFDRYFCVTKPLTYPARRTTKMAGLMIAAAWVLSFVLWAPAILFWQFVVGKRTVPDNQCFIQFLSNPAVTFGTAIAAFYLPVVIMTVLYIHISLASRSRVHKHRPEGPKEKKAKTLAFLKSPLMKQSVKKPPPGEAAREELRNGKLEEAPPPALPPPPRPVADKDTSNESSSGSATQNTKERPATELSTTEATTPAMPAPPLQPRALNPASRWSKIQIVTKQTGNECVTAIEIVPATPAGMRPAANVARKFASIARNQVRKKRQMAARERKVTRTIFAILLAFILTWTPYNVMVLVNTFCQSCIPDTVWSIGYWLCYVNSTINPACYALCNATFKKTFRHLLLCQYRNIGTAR

[2] = target: Sigma intracellular receptor 2 (Homo sapiens, UniProt Q5BJF2); assay: GPCRScan assay: inhibition of Sigma 2; set-up: radioligand conc. used [nm] 5.0, parental cells HEKT
[3] = target: Aldo-keto reductase family 1 member B1 (Rattus norvegicus) (UniProt P07943); assay: Inhibition of Aldose Reductase at 10.0 µM in the Eurofins Panlabs Safety Screen; settings: Compound concentration 10.0 uM
[4] = target: 3',5'-cyclic-AMP phosphodiesterase 4D (Homo sapiens) (UniProt Q08499); assay: Inhibition of Phosphodiesterase PDE4D2 at 10.0 µM in the Eurofins Panlabs Safety Screen; settings: Compound concentration 10.0 uM
[5] = target: Type-1 angiotensin II receptor (Homo sapiens) (UniProt P30556); assay: Inhibition of Angiotensin AT1 at 10.0 µM in the Eurofins Panlabs Safety Screen; settings: Compound concentration 10.0 uM
[6] = target: D(2) dopamine receptor (Homo sapiens) (UniProt P14416); assay: Inhibition of Dopamine D2S at 10.0 µM in the Eurofins Panlabs Safety Screen; settings: Compound concentration 10.0 uM
[7] = target: GABA-A receptor; anion channel (Rattus norvegicus) (UniProt O09028+P15431+P18506+P18508+P19969+P20236+P23574+P23576+P28471+P28473+P30191+P62813+P63079+P63138+Q91ZM7+Q9ES14); assay: Inhibition of GABAA, Flunitrazepam, Central at 10.0 µM in the Eurofins Panlabs Safety Screen; assay type: protein-complex assay; settings: Compound concentration 10.0 uM
[8] = target: Histamine H2 receptor (Homo sapiens) (UniProt P25021); assay: Inhibition of Histamine H2 at 10.0 µM in the Eurofins Panlabs Safety Screen; settings: Compound concentration 10.0 uM
[9] = target: T2, Muscarinic acetylcholine receptor M1 (Homo sapiens) (UniProt P11229); assay: Inhibition of Muscarinic M1 at 10.0 µM in the Eurofins Panlabs Safety Screen; settings: Compound concentration 10.0 uM
T2 sequence (whole entry): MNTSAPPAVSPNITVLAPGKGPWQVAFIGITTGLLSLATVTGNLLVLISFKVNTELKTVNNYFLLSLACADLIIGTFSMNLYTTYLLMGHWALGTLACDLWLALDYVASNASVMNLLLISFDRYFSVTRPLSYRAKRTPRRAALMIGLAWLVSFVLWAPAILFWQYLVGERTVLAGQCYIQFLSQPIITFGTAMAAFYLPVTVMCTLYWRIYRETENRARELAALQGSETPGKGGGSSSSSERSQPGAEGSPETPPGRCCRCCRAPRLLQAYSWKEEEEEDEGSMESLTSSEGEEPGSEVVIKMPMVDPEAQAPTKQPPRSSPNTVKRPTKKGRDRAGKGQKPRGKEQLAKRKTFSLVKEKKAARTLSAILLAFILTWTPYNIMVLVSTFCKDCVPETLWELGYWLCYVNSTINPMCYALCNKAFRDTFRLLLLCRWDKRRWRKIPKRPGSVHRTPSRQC

[10] = target: T3, 5-hydroxytryptamine receptor 1A (Homo sapiens) (UniProt P08908); assay: Inhibition of Serotonin (5-Hydroxytryptamine) 5-HT1A at 10.0 µM in the Eurofins Panlabs Safety Screen; settings: Compound concentration 10.0 uM
T3 sequence (whole entry): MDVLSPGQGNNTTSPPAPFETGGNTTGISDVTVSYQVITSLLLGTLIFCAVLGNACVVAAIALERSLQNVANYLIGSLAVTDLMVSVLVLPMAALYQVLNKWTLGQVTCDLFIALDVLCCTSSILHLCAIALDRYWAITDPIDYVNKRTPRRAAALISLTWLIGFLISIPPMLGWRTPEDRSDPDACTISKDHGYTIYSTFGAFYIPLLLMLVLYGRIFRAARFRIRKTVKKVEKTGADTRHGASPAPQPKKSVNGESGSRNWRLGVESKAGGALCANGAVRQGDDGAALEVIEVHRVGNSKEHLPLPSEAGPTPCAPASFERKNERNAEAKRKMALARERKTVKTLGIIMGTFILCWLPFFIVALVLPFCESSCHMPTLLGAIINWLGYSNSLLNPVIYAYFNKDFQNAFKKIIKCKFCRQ

[11] = target: Sodium-dependent noradrenaline transporter (Homo sapiens) (UniProt P23975); assay: Inhibition of Transporter, Norepinephrine (NET) at 10.0 µM in the Eurofins Panlabs Safety Screen; settings: Compound concentration 10.0 uM
[12] = target: Vasopressin V1a receptor (Homo sapiens) (UniProt P37288); assay: Inhibition of Vasopressin V1A at 10.0 µM in the Eurofins Panlabs Safety Screen; settings: Compound concentration 10.0 uM
[13] = target: D(1A) dopamine receptor (Homo sapiens) (UniProt P21728); settings: Compound concentration 10.0 uM
[14] = target: Kappa-type opioid receptor (Homo sapiens) (UniProt P41145); settings: Compound concentration 10.0 uM
[15] = target: Alpha-1A adrenergic receptor (Homo sapiens) (UniProt P35348); settings: Compound concentration 10.0 uM
[16] = target: T4, Muscarinic acetylcholine receptor M2 (Homo sapiens) (UniProt P08172); settings: Compound concentration 10.0 uM
T4 sequence (whole entry): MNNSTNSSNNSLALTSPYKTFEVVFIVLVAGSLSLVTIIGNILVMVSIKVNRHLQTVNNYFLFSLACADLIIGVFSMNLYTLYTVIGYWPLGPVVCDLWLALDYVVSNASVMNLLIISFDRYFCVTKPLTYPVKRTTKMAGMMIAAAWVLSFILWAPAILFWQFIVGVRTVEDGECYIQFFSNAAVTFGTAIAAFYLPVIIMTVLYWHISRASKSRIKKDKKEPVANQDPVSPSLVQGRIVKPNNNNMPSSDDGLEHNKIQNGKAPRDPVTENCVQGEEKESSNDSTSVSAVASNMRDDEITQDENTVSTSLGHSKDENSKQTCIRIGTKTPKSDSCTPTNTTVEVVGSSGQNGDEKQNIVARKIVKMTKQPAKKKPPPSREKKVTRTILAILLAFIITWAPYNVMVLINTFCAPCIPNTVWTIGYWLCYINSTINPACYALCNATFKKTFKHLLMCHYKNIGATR

[17] = target: Beta-3 adrenergic receptor (Homo sapiens) (UniProt P13945); settings: Compound concentration 10.0 uM
Beta-3 adrenergic receptor (Homo sapiens), sequence (P13945 whole entry, looked up): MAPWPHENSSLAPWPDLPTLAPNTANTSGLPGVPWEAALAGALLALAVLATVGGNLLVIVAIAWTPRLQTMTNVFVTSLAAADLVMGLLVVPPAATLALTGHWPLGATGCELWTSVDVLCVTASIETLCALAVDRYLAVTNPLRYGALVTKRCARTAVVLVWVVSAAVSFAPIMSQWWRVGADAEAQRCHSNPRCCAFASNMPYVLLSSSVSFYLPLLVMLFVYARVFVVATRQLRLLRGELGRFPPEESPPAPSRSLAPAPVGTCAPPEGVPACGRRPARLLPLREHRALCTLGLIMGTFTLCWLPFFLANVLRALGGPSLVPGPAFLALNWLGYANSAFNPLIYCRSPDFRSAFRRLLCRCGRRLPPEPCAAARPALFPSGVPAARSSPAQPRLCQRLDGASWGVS

Alpha-1A adrenergic receptor (Homo sapiens), sequence (P35348 whole entry): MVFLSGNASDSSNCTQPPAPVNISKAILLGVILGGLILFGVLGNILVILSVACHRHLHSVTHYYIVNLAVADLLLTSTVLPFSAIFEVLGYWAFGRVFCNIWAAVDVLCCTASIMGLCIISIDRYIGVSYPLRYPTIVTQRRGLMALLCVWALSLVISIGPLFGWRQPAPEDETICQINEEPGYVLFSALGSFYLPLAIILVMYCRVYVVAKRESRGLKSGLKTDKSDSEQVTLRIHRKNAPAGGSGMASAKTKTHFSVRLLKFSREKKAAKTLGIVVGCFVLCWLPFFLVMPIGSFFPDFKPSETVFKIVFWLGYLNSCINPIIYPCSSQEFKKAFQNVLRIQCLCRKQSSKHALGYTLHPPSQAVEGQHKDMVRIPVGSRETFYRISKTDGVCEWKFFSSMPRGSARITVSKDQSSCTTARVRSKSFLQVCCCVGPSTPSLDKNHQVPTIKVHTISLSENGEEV
Sigma intracellular receptor 2, sequence (Q5BJF2 whole entry): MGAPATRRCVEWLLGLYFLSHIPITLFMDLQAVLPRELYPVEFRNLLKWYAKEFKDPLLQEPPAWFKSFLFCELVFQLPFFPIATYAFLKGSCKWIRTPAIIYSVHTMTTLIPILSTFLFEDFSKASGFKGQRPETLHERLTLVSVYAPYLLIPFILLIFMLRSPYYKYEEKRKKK
D(1A) dopamine receptor (Homo sapiens), sequence (P21728 whole entry): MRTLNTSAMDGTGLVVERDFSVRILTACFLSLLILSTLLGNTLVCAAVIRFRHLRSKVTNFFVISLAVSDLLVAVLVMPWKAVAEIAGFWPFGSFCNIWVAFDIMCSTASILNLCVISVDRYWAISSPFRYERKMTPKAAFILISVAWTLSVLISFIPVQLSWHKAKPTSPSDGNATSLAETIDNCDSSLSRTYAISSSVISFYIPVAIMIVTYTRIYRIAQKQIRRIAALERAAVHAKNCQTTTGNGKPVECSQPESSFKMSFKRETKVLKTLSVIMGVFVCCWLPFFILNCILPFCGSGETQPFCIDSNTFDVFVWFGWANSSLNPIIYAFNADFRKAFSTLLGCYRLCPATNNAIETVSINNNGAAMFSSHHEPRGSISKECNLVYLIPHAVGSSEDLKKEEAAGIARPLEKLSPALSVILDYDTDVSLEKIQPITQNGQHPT
Kappa-type opioid receptor (Homo sapiens), sequence (P41145 whole entry): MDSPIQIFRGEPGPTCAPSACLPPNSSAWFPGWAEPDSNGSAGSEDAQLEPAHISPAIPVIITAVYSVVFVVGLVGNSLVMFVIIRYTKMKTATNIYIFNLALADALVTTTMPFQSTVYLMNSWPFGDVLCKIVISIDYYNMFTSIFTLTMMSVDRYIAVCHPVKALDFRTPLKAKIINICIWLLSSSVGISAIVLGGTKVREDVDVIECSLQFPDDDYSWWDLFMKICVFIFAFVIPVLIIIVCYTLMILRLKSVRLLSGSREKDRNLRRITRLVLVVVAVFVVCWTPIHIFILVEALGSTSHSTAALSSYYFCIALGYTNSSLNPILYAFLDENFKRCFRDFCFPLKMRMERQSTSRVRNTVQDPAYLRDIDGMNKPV
Type-1 angiotensin II receptor (Homo sapiens), sequence (P30556 whole entry): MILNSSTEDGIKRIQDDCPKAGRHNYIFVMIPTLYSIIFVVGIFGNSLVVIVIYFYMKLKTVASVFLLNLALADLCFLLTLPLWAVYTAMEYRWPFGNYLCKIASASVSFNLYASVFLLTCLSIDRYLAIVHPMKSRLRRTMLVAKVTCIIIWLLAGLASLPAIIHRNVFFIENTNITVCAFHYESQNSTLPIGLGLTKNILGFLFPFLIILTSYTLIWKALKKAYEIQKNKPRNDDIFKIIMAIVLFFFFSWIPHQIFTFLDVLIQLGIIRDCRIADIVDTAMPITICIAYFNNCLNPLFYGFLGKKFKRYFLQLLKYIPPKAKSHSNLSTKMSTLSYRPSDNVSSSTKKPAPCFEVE
D(2) dopamine receptor (Homo sapiens), sequence (P14416 whole entry): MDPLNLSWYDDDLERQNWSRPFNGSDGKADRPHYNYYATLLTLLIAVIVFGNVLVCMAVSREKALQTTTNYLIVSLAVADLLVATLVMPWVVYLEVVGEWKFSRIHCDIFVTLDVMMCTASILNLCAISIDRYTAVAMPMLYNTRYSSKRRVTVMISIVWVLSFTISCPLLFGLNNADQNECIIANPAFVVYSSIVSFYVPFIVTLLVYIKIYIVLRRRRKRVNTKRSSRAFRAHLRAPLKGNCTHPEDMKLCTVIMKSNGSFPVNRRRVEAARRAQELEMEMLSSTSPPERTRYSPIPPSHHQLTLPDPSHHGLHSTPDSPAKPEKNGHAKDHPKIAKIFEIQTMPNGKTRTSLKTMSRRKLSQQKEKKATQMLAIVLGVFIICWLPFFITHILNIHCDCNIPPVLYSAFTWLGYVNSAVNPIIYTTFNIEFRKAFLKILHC
3',5'-cyclic-AMP phosphodiesterase 4D (Homo sapiens), sequence (Q08499 whole entry): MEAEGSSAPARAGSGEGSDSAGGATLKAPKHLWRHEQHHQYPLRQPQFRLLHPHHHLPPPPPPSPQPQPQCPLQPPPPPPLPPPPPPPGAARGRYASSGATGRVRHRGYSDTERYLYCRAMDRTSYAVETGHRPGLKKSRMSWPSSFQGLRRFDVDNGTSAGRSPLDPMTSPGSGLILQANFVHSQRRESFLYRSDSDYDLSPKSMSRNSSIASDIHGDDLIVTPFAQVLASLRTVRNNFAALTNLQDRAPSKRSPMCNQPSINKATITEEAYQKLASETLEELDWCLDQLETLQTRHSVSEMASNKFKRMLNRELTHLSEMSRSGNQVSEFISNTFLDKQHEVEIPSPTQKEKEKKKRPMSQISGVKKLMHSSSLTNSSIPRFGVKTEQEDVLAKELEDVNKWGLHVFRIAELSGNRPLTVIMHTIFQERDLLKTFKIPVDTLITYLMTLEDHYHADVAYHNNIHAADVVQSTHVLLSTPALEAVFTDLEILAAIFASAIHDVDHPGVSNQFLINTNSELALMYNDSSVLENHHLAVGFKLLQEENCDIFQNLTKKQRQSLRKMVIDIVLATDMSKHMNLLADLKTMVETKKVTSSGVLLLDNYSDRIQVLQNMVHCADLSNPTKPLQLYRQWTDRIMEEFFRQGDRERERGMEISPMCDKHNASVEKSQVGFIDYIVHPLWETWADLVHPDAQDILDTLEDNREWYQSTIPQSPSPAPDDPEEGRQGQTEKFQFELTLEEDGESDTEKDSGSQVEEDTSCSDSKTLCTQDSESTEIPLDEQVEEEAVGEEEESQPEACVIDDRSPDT
Sodium-dependent noradrenaline transporter (Homo sapiens), sequence (P23975 whole entry): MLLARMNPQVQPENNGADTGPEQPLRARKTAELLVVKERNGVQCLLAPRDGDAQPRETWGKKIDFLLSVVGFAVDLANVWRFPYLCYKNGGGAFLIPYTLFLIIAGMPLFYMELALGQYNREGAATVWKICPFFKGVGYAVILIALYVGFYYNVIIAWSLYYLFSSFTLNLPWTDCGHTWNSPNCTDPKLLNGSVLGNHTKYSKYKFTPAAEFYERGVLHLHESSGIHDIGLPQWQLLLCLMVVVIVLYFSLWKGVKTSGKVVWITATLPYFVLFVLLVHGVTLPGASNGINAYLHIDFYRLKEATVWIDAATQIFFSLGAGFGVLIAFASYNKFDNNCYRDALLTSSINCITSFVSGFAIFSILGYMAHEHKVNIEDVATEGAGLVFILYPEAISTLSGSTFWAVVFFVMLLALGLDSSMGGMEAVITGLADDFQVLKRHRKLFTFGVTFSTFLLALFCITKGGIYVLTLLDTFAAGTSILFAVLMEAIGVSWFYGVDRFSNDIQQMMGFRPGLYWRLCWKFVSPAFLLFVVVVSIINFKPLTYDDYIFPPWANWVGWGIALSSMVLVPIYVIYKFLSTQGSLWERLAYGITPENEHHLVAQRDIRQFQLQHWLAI
Vasopressin V1a receptor (Homo sapiens), sequence (P37288 whole entry, looked up): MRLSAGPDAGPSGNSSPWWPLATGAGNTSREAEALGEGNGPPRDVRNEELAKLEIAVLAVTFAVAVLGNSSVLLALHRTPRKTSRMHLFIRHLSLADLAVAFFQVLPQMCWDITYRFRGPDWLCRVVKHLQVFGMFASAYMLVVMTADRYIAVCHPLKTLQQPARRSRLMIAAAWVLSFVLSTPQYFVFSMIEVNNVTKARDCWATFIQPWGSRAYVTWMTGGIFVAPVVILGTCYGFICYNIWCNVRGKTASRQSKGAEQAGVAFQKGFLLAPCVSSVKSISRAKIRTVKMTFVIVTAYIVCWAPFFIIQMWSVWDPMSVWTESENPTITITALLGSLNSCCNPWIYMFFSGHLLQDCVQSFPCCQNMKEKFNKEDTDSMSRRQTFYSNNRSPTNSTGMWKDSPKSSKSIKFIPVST
Histamine H2 receptor (Homo sapiens), sequence (P25021 whole entry): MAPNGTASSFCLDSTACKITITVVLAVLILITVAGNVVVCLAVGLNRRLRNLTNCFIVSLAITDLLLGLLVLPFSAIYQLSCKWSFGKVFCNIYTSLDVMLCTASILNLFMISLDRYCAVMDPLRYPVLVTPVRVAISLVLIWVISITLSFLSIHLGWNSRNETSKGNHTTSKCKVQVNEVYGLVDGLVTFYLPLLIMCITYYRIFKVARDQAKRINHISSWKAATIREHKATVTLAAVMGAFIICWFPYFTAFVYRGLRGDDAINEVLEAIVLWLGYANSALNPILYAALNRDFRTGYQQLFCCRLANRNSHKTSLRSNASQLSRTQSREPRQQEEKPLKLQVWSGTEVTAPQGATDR

`O=C1NCCCC1N1Cc2cc(C3CCN(C(=O)CCCCCN4CCC(c5ccc(Oc6nn7cnnc7c7c6CCCC7)cc5)CC4)CC3)ccc2C1=O` (stereo not drawn) gave a Ki ([1]; read-out: Ki) of 0.894 µM, a Ki ([1]; read-out: pKi (converted)) of 0.891 µM and a Ki ([2]; read-out: Ki) of 1.14 µM. It also gave a Ki ([2]; read-out: pKi (converted)) of 0.977 µM, an inhibition [3] of 29% and an inhibition [4] of 18%. It also gave an inhibition [5] of 2%, an inhibition [6] of 13% and an inhibition [7] of 15%. It also gave an inhibition [8] of 36%, an inhibition [9] of 53% and an inhibition [10] of 6%. For the same compound, the inhibition [11] was 15%, the inhibition [12] was -3% and the inhibition [13] was 8.56%. The inhibition [14] was 29.3%, the inhibition [15] was -1.93% and the inhibition [16] was 57.2%. For the same compound, the inhibition [17] was 7.19%.

`O=C1CCC(N2Cc3cc(C4CCN(C(=O)CCCCCN5CCC(c6ccc(Oc7nn8cnnc8c8c7CCCC8)cc6)CC5)CC4)ccc3C2=O)C(=O)N1` (stereo not drawn) showed a Ki ([1]; read-out: Ki) of 0.632 µM, a Ki ([1]; read-out: pKi (converted)) of 0.617 µM and a Ki ([2]; read-out: Ki) of 0.867 µM. It also gave a Ki ([2]; read-out: pKi (converted)) of 0.832 µM, an inhibition [3] of 32% and an inhibition [4] of 10%. It also gave an inhibition [5] of -4%, an inhibition [6] of -8% and an inhibition [7] of 10%. It also gave an inhibition [8] of 32%, an inhibition [9] of 53% and an inhibition [10] of 25%. For the same compound, the inhibition [11] was 28%, the inhibition [12] was -8% and the inhibition [13] was 5.21%. For the same compound, the inhibition [14] was 27.6%, the inhibition [15] was 12.2% and the inhibition [16] was 64.3%. The inhibition [17] was 27.8%.
